Source: US9694040B2, “Hydrogenation of cannabis oil” (priority 2015, dated 2017)

Test system: U87 (Human glioblastoma)
Test: U87 glioblastoma subcutaneous xenograft tumor growth, excised tumor weight
Format: in vivo
Details: for effect on tumor weight versus untreated vehicle: female athymic mice with U87 implants, 10 mg/kg body weight fed, compared with Vehicle 73.8 mg; for Tumor weight: female athymic mice, subcutaneous U87 implants (two per mouse), fed 10 mg/kg body weight, tumors excised and weighed at termination (about one week of treatment), average of six tumors, Vehicle 73.8 mg
Method: The effect of the hydrogenated and non-hydrogenated cannabis oil on tumor growth and angiogenesis were evaluated by implanting U87 (Human glioblastoma) 3×10^6 cells (50% matrigel) in […] female athymic mice. The site of implantation was subcutaneous with two implants per mouse. The date of implantation was Feb. 1, 2016 and the date of administering treatment was Feburary 3, 2016. There were three mice in each of the following groups, and the treatment consisted of feeding each of the three mice 10 mg/kg body weight of the treatment corresponding to each one of the following groups: • 1. Untreated Vehicle • 2. THCA • 3. CBDA • 4. HCBDA • 5. HTHCA
The termination date was Feb. 11, 2016. On this date, the tumors were excised and weighed. The results are shown in Table 1 and illustrated in the below plot.
It was assumed that the excised tumor weight for the “Untreated Vehicle” was essentially equivalent to its starting tumor weight.

SMILES | effect on tumor weight versus untreated vehicle | Tumor weight
C=C(C)[C@@H]1CCC(C)=C[C@H]1c1c(O)cc(CCCCC)c(C(=O)O)c1O [CBDA, Δ-9-cannabidiolic acid] | effective to reduce tumor weight | 39.1 mg
CCCCCc1cc(O)c([C@@H]2CC(C)CC[C@H]2C(C)C)c(O)c1C(=O)O (some centres unmarked) [HCBDA, hydrogenated 9-cannabidioc acid] | effective to reduce tumor weight | 32.6 mg
CCCCCc1cc2c(c(O)c1C(=O)O)[C@@H]1CC(C)CC[C@H]1C(C)(C)O2 (some centres unmarked) [HTHCA, hydrogenated 9-tetrahydrocannabinoic acid] | effective to reduce tumor weight | 44.5 mg
CCCCCc1cc2c(c(O)c1C(=O)O)[C@@H]1C=C(C)CC[C@H]1C(C)(C)O2 [THCA, Δ-9-tetrahydrocannabinoic acid] | effective to reduce tumor weight | 46.0 mg
